Experimental data from the NIST ThermoML archive (doi:10.1021/acs.jced.6b00092).
Numbers after ± are expanded uncertainties.

Legend:
[1] = Liquid; for mass density: 298.15 K, 101.33 kPa, Vibrating tube method; for vapor or sublimation pressure / Normal boiling temperature: Ebulliometric method (Recirculating still)
[2] = refractive index (Na D-line) (dimensionless); details: 298.15 K; 101.33 kPa; Liquid; Standard Abbe refractometry

mass density [1] [kg/m3]	vapor or sublimation pressure ([1]; 379.01 K) [kPa]	vapor or sublimation pressure ([1]; 389.52 K) [kPa]	vapor or sublimation pressure ([1]; 397.48 K) [kPa]	Normal boiling temperature [1] [°C]	refractive index [2]	vapor or sublimation pressure ([1]; 442.09 K) [kPa]	vapor or sublimation pressure ([1]; 453.84 K) [kPa]	vapor or sublimation pressure ([1]; 462.67 K) [kPa]	SMILES	vapor or sublimation pressure ([1]; 473.44 K) [kPa]	vapor or sublimation pressure ([1]; 485.11 K) [kPa]	vapor or sublimation pressure ([1]; 493.78 K) [kPa]
807.3 ± 10	40 ± 8	60 ± 12	80 ± 16	130.70 ± 4	1.4055 ± 0.0004	–	–	–	CC(C)CCO [3-methylbutan-1-ol]	–	–	–
915.6 ± 10	–	–	–	197.30 ± 4	1.4265 ± 0.0004	40 ± 7	60 ± 8	80 ± 9	CC(O)CC(C)(C)O (stereo not drawn) [2-methyl-2,4-pentanediol]	–	–	–

SMILES	mass density [1] [kg/m3]	vapor or sublimation pressure ([1]; 379.01 K) [kPa]	vapor or sublimation pressure ([1]; 389.52 K) [kPa]	vapor or sublimation pressure ([1]; 397.48 K) [kPa]	Normal boiling temperature [1] [°C]	refractive index [2]	vapor or sublimation pressure ([1]; 442.09 K) [kPa]	vapor or sublimation pressure ([1]; 453.84 K) [kPa]	vapor or sublimation pressure ([1]; 462.67 K) [kPa]	vapor or sublimation pressure ([1]; 473.44 K) [kPa]	vapor or sublimation pressure ([1]; 485.11 K) [kPa]	vapor or sublimation pressure ([1]; 493.78 K) [kPa]
OCCCCO [1,4-butanediol]	1012.96 ± 10	–	–	–	227.93 ± 4	1.4447 ± 0.0004	–	–	–	40 ± 7	60 ± 8	80 ± 9
